Legend:
anti-D-VMA antibody = assay: Cross-reactivity of anti-D-VMA monoclonal antibodies with acidic catecholamine metabolites (competitive enzyme immunoassay); format: binding, mouse; details: reactivity with D-VMA defined as 100%; for Antibody Reactivity (% by weight): from concentration ratios at 50% inhibition on standard curves
Experimental: Three days after the final booster, spleen cells of the mouse were enucleated and washed with Eagle's minimum essential medium (MEM). […] The spleen cells and P3 U1 were mixed at 10:1 and the mixture was centrifuged. To the pellets obtained was gradually added 1 ml of an MEM solution containing 50% polyethylene glycol (PEG) 1000 to cause cell fusion. […] 0.1 ml of the suspension was apportioned to each well of a 96-well microplate. One day thereafter, 0.1 ml of HAT medium was added. […] Into each well of the 96-well microplate previously coated with HSA and the 96-well microplate coated with D-VMA-HSA (10 μg/ml) was added […] of the above diluted culture supernatant. […] After one hour at room temperature, by the use of the same reagent as in the case of the ELISA method as described above except for using O-phenylenediamine as the chromogenic reagent, enzyme immunoassay was practiced according to the competitive reaction method.

[1] = system: peroxidase-labeled anti-D-VMA antibody; assay: Competitive enzyme immunoassay of D-VMA or L-VMA solutions with peroxidase-labeled anti-D-VMA antibody on solid-phase antigen plate; format: binding, mouse; details: conclusion drawn from Table 2
Experimental: A volume of 50 μl of the D-VMA solution or L-VMA solution as described above and 50 μl of the peroxidase-labeled anti-D-VMA antibody solution were added into each well, and reaction was carried out stationarily at room temperature for one hour.
After reaction, the solution in each well was discarded and each well was washed with a 0.9% aqueous sodium chloride solution.
After washing, 100 μl of a substrate solution (containing 1 mM H2 O2 and […] TMBZ) was added and left standing for 25 minutes. A volume of 100 μl of a reaction stopping solution (a 2N sulfuric acid solution) was added, and absorbance at 450 nm was measured by the use of a 96-well microplate reader MPR-A4 (produced by Toso K. K.).
After measurement, from the calibration curve prepared by the use of DL-VMA of a known concentration as a standard substance (FIG. 1), the VMA concentration corresponding to the above absorbance was determined.

| Structure (SMILES) | Antibody Reactivity (% by weight) (anti-D-VMA antibody) | cross-reactivity of the antibody reagent (anti-D-VMA antibody) | reactivity of the labeled antibody [1] |
| --- | --- | --- | --- |
| O=C(O)Cc1ccc(O)c(O)c1 [3,4-Dihydroxyphenylacetic acid (DOPAC), 3,4-Dihydroxyphenylacetic acid] | < 0.01 % by weight |  |  |
| O=C(O)C(O)c1ccc(O)c(O)c1 (stereo not shown) [3,4-Dihydroxymandelic acid (DOMA), 3,4-Dihydroxymandelic acid] | 4 % by weight |  |  |
| COc1cc(CC(=O)C(=O)O)ccc1O [Vanillylpyruvic acid] | 4 % by weight |  |  |
| CNCC(O)c1ccc(O)c(OC)c1 (stereo not shown) [Metanepherine] | < 0.01 % by weight |  |  |
| COc1cc([C@H](O)C(=O)O)ccc1O [L-VMA] | < 1 % by weight | ≤ 1% | substantially no reactivity |
| COc1cc(C(O)C(=O)O)ccc1O (racemic) [DL-VMA, vanillylmandelic acid] | 50 % by weight |  |  |
| COc1cc([C@@H](O)C(=O)O)ccc1O [D-VMA, D-vanillylmandelic acid] | 100 % by weight |  |  |
| COc1cc(CC(=O)O)ccc1O [Homovanilic acid (HVA), Homovanilic acid] | < 0.01 % by weight |  |  |

Source: patent US5298397A, “Method of assaying d-vanillylmandelic acid” (Yamasa Shoyu Kabushiki Kaisha, priority 1989, dated 1994)
